This note sets out measurements from patent publication US20030220369A1, “Heterocyclic sulfonamide derivatives and their use for potentiating glutamate receptor function” (priority 2003, published 2003).

Broadly, the melting point is the temperature of the solid-liquid transition. The compound `CC(C)S(=O)(=O)NCC(C)(F)c1ccc(-c2cccc3c2CC(=O)N3)cc1` (stereo not shown) [Example 9, 4-[4-(1-fluoro-1-methyl-2-{[methylethyl)sulfonylamino}-ethyl)phenyl]indolin-2one] displayed a melting point of 86 to 87 °C.
